Values quoted from earlier work in patent publication US7586020B2, “Methods for determining effects of maternal treatments on offspring” (priority 1998, dated 2009).

System: (YS×VY)FI female mice
Details: between about 17 and 24 months of age

For `Cl[C@H]1[C@H](Cl)[C@@H](Cl)[C@@H](Cl)[C@H](Cl)[C@H]1Cl` [lindane], the “mortality, lindane-treated versus untreated control mice” value is listed as “no differences in mortality”.
